Usually IC50 stands for the concentration at which inhibition is half-maximal. One may read the kinetic solubility as the concentration staying in solution when a stock, usually in DMSO, is diluted into the medium. One may read the half-life as the time needed for the level to fall by half in the phase considered. A high value points to slow decline. By chromatographic logD is commonly meant a lipophilicity value derived from retention on a column.

In brackets after ≈: the same amount, converted by molar mass. Several values for one entry are separate records, joined by “and”; a condition that tells them apart may be missing. Equal entries are not always repeated. Bounds are passed on as bounds.

Results on ten compounds are retold here after ChEMBL document CHEMBL1857833, “Screening and optimization of specific chemical series against human African Trypanosomiasis (HAT)”.

Data set [1] in a line: DNDI: Cytotoxicity against L929 mouse fibroblasts, 72 hour. It is filed as toxicity, cell-based. Particulars: mouse, L929 mouse fibroblasts.
In data set [2] the test system is Trypanosoma brucei. Kind of data set: DNDI: Inhibition of Human African Trypanosomiasis, SBRI 427, in vitro. It is filed as functional, organism-based.
Data set [3] has as its system Trypanosoma brucei. Kind of data set: (§1) DNDI: Mean survival time in days (MSD) of mice after intraperitoneal injection of Human African Trypanosomiasis (HAT), EATRO 110, in vivo at 20 mg/kg/day for 4 days. It is filed as functional, Mus musculus.
The test system of data set [4] is Trypanosoma brucei. Described as §1. It is filed as functional, Mus musculus. The source holds these as a separate data set.
The nature of data set [5]: DNDI: Solubility in phosphate buffered saline at pH7.4 measured by nephelometry at room temperature (NEPH-RT). Type of data set: physicochemical. Conditions: pH 7.4.
For data set [6] the following is noted: mouse, microsomes, 1 µM.
Description: DNDI: in vitro intrinsic clearance in mouse liver microsomes at a concentration of 1uM
Data set [7] is described as follows: in vitro. Conditions: mouse, liver microsomes, t (1 / 2).
Description: DNDI: half life in mouse liver microsomes at a concentration of 1uM
Data set [8] in a line: DNDI: Lipophilicity measured in Chromatographic hydrophobicity index (CHI) assay, pH 7.4. Type of data set: physicochemical. Particulars: buffer.
Data set [9] can be described thus: DNDI: % of compound remaining in rat S9 microsomes at a concentration of 1uM. It is filed as ADME, subcellular, Liver, S9 fraction.
A short description of data set [10]: DNDI: half-life in mouse S9 microsomes at a concentration of 1uM. It is filed as ADME, subcellular, Liver, S9 fraction.
Data set [11] in a line: DNDI: % of compound remaining in mouse S9 microsomes at a concentration of 1uM after 60 mins. Type of data set: ADME, subcellular, Liver, S9 fraction.
Data set [12] in a line: DNDI: Cytotoxicity against L929 mouse fibroblasts, CYTO-SP, 24 hour. It is filed as toxicity, cell-based. Particulars: mouse, L929 mouse fibroblasts.
The test system of data set [13] is Trypanosoma brucei. The experiment in a line: DNDI: Inhibition of Human African Trypanosomiasis, Cross 22, in vitro. It is filed as functional, organism-based.
Data set [14] has as its system Trypanosoma brucei. Kind of data set: DNDI: Inhibition of Human African Trypanosomiasis, EATRO 110, in vitro. Type of data set: functional, organism-based.
The test system of data set [15] is Trypanosoma cruzi. The experiment in a line: DNDI: Inhibition of Chagas Disease parasite Trypanosoma cruzi (Tulahuen LacZ, Clone C4), in vitro. Type of data set: functional, organism-based.
Data set [16] can be described thus: DNDI: Cytotoxicity against L-6 rat myoblasts from skeletal muscle cells. Conditions: L-6 rat skeletal muscle myoblasts. It is filed as toxicity, cell-based, L6.
Data set [17] concerns Trypanosoma brucei rhodesiense. Kind of data set: DNDI: Inhibition of Human African Trypanosomiasis (HAT), STIB 900, in vitro. It is filed as functional, organism-based.
In data set [18] the test system is Leishmania donovani. Kind of data set: DNDI: Inhibition of formation of Leishmania donovani (strain MHOM/ET/67/L82) axenic amastigotes, in vitro. Type of data set: functional, organism-based.
Data set [19] has as its system Plasmodium falciparum. The experiment in a line: DNDI: Inhibition of the malaria parasite Plasmodium falciparum, in vitro. It is filed as functional, organism-based. Particulars: K1.
[20] abbreviates: Trypanosoma brucei, SBRI 427, read-out: IC50.

Compound `CCCCCC(C)NCc1coc(-c2ccc(OC(CC)CC)cc2)n1` (centres undefined) came in with an IC50 at 72 h in data set [1] of 0.85 µg/mL (≈ 2.37 µM). Moreover, in [2] (setting [20]), the IC50 was determined as 0.36 µg/mL (≈ 1 µM). For the same compound, the MSD in data set [3] and in data set [4] was 4 days each time. In data set [5], the kinetic solubility was found to be 1 µM (≈ 0.359 µg/mL). Also, the CLint in vitro in data set [6] worked out at 2 µL/min/mg. The half-life at 1 µM in [7] turned out to be 476 min.
As to `Cc1ccc(Oc2ncccc2/C(=N/O)NC2CCCCC2)cc1`, the IC50 at 72 h in data set [1] was more than 10 µg/mL. Besides, the IC50 in data set [2] (setting [20]) is 0.16 µg/mL (≈ 0.492 µM). Besides, the chromatographic logD in data set [8] is 4.32. For the same compound, the share remaining at 1 µM in data set [9] is 0%. In addition, the solubility (kinetic) in [5] stood at 25 µM (≈ 8.14 µg/mL). The CLint in vitro in data set [6] was found to be 244.61 µL/min/mg. Besides, the half-life at 1 µM in data set [7] came to 3.48 min.
For `c1ccc2c(Oc3nc(NCCN4CCCC4)nc4ccsc34)cccc2c1`, the IC50 at 72 h in [1] was more than 10 µg/mL. For the same compound, the IC50 in data set [2] (setting [20]) turned out to be 1.06 µg/mL (≈ 2.71 µM). This compound returned a half-life at 1 µM in [10] of 3.5 min.
As for `CCCCCC(C)NCc1coc(-c2ccc(Oc3ccccc3)cc2)n1` (centres undefined), in [1], the IC50 at 72 h is 1.6 µg/mL (≈ 4.39 µM). Also, in data set [2] (setting [20]), the IC50 stood at 0.42 µg/mL (≈ 1.15 µM). The chromatographic logD in data set [8] is 4.67. In [11], the share remaining at 1 h, 1 µM stood at 59.9%. Besides, the share remaining at 1 µM in data set [9] amounted to 0%. In addition, in [5], the solubility (kinetic) came out at 6 µM (≈ 2.19 µg/mL). The compound also had a CLint in vitro in data set [6] of 28 µL/min/mg. Further, in data set [7], the half-life at 1 µM is 31 min.
`CCCCc1ccc(-c2nc(CNCc3c(OC)cccc3OC)co2)cc1`: the IC50 at 72 h in data set [1] turned out to be 1.62 µg/mL (≈ 4.26 µM). In addition, the IC50 in data set [2] (setting [20]) was determined as 0.32 µg/mL (≈ 0.841 µM). Moreover, the MSD in data set [3] was determined as 4.5 days. The same compound gave a chromatographic logD in data set [8] of more than 5.2. For the same compound, in data set [11], the share remaining at 1 h, 1 µM worked out at 18.7%. The share remaining at 1 µM in data set [9] turned out to be 0.169%. The kinetic solubility in data set [5] stood at 6 µM (≈ 2.28 µg/mL). In addition, the CLint in vitro in data set [6] was found to be 65 µL/min/mg. This compound yielded a half-life at 1 µM in [7] of 13 min.
In turn, `CCCCCOc1ccc(-c2nc(CNC[C@@H]3CC[C@H]4C[C@@H]3C4(C)C)co2)cc1` came in with a concentration for half-maximal inhibition (IC50) at 24 h in [12] of more than 50 µg/mL. Besides, the half-inhibitory concentration (IC50) at 72 h in data set [1] was less than 3.13 µg/mL. The 50% inhibitory concentration (IC50) in data set [2] (setting [20]) was 0.08 µg/mL (≈ 0.202 µM). The same compound came in with an MSD in [4] of 4 days. Further, the chromatographic logD in [8] was 6.45. Further, in data set [5], the solubility (kinetic) is less than 1 µM. In [6], the CLint in vitro was 74 µL/min/mg. For the same compound, in [7], the half-life at 1 µM came to 12 min.
The compound `CC(C)Oc1ccc(-c2nc(CNC3CCCCCC3)co2)cc1` showed an IC50 at 72 h in data set [1] of 6.77 µg/mL (≈ 20.6 µM). The concentration for half-maximal inhibition (IC50) in [2] (setting [20]) worked out at 2.39 µg/mL (≈ 7.28 µM). The MSD in data set [3] and in data set [4] was 4 days in each case. The CLint in vitro in data set [6] came to 12 µL/min/mg. The compound further came in with a half-life at 1 µM in data set [7] of 68 min.
`CCOc1ccc(-c2nc(CNC3[C@H]4C[C@@H]5C[C@@H](C[C@H]3C5)C4)co2)cc1` (some centres undefined) had an IC50 at 24 h in data set [12] of 43.2 µg/mL (≈ 123 µM). Moreover, the IC50 at 72 h in data set [1] was found to be 6.6 µg/mL (≈ 18.7 µM). For the same compound, the IC50 in data set [13] is 2.15 µg/mL (≈ 6.1 µM); in data set [14], 0.86 µg/mL (≈ 2.44 µM); in data set [2], 1.46 µg/mL and 2 µg/mL; in data set [2] (setting [20]), 1.21 µg/mL (≈ 3.43 µM). The CLint in vitro in data set [6] worked out at 102 µL/min/mg. This compound also had a half-life at 1 µM in data set [7] of 8 min.
In [12], `CC1CC(NCc2coc(-c3ccc(-c4ccccc4)cc3)n2)CC(C)(C)C1` (centres undefined) had an IC50 at 24 h of 7.93 µg/mL (≈ 21.2 µM). Moreover, the half-inhibitory concentration (IC50) at 72 h in data set [1] was less than 3.13 µg/mL. Besides, the IC50 in [13] is 0.25 µg/mL (≈ 0.668 µM); in [2], 0.24 µg/mL and 0.16 µg/mL; in [2] (setting [20]), 0.27 µg/mL (≈ 0.721 µM). For the same compound, the amount remaining at 1 h, 1 µM in data set [11] turned out to be 112%. In addition, the share remaining at 1 µM in [9] is 105%. This compound showed a CLint in vitro in data set [6] of 6 µL/min/mg. The same compound registered a half-life at 1 µM in data set [7] of 154 min.
As for `CCCCc1ccc(-c2nc(CNC3[C@H]4C[C@@H]5C[C@@H](C[C@H]3C5)C4)co2)cc1` (some centres undefined), the IC50 in data set [15] is 3.9 µg/mL (≈ 10.7 µM); in data set [16], 8.8 µg/mL (≈ 24.1 µM); in [13] it was 0.44 µg/mL (≈ 1.21 µM); in data set [2], 0.77 ug/ml [middle of 4 runs]; in data set [17] it was 0.727 µg/mL (≈ 1.99 µM); in data set [18], 9.58 µg/mL (≈ 26.3 µM). In data set [19], this compound showed an IC50 of 0.738 µg/mL (≈ 2.02 µM). This compound also gave an IC50 at 24 h in [12] of more than 50 µg/mL. This compound came in with an MSD in data set [4] of 4 days.
